Data on 33 compounds can be found in patent US20240270741A1 (Cogent Biosciences, Inc., priority 2023, published 2024).

pIC50: −log10 of the molar value.

Chain of FGFR2 (P21802 399-821 limits assumed): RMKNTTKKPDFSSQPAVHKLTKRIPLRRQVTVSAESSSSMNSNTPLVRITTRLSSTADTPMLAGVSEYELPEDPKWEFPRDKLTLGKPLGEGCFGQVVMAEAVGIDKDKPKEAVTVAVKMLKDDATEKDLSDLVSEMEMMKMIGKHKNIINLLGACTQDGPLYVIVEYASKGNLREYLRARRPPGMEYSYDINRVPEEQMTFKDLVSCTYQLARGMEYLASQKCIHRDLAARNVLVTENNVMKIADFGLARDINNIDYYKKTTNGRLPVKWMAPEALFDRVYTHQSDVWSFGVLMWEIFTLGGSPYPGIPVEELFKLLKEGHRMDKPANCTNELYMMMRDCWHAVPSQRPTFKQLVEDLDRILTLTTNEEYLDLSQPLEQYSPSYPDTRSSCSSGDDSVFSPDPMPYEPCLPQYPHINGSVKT

The first assay concerns the target FGFR2 (Homo sapiens, UniProt P21802). Kind of assay: FGFR wild type enzyme assay (HTRF KinEASE-TK), FGFR2. The note with it: Enz FGFR2 (nM), FGFR2 wild type enzyme assay.
Usually IC50 stands for the concentration that inhibits the measured activity by half. Compound `CCn1cc(-c2cc(Sc3ccccc3C#N)c3c(C#N)cnn3c2)cn1` [Example 572, 4-((2-cyanophenyl)thio)-6-(1-ethyl-1H-pyrazol-4-yl)pyrazolo[1,5-a]pyridine-3-carbonitrile] gave an IC50 of 1 nM. Still for that read-out and setting: the same measure for `N#Cc1ccccc1Sc1cc(-c2cnn(CC(=O)O)c2)cn2ncc(C#N)c12` [Example 573, 2-(4-(3-cyano-4-((2-cyanophenyl)thio)pyrazolo [1,5-a]pyridin-6-yl)-1H-pyrazol-1-yl)acetic acid]: 4 nM; for `CC(=O)N[C@H]1CC[C@H](n2cc(-c3cc(Sc4ccccc4C#N)c4c(C#N)cnn4c3)cn2)CC1` [Example 574, N-((1r,4r)-4-(4-(3-cyano-4-((2-cyanophenyl)thio)pyrazolo [1,5-a]pyridin-6-yl)-1H-pyrazol-1-yl)cyclohexyl)acetamide]: 1 nM.

Regarding `CNc1ccc(-c2cc(Sc3ccc(F)cc3C#N)c3c(C#N)cnn3c2)cn1` [Example 575, 4-((2-cyano-4-fluorophenyl)thio)-6-(6-(methylamino)pyridin-3-yl)pyrazolo[1,5-a]pryidine-3-carbonitrile], it took 5 nM to reach half-maximal inhibition (IC50). The same measure, in the same setting: the value for `Cc1cccc(Sc2cc(-c3cnn(C)c3)cn3ncc(C#N)c23)c1C#N` [Example 576, 4-((2-cyano-3-methylphenyl)thio)-6-(1-methyl-1H-pyrazol-4-yl)pyrazolo[1,5-a]pyridine-3-carbonitrile] was 7 nM; that for `N#Cc1cnn2cc(-c3cn([C@H]4CCCNC4)nc3F)cc(Sc3ncccc3F)c12` [Example 577, (S)-6-(3-fluoro-1-(piperidin-3-yl)-1H-pyrazol-4-yl)-4-((3-fluoropyridin-2-yl)thio)pyrazolo[1,5-a]pyridine-3-carbonitrile] was 7 nM. Still for that read-out and setting: the same measure for `CC(C)(CO)n1cc(-c2cc(Sc3ccccc3C#N)c3c(C#N)cnn3c2)cn1` [Example 578, 4-((2-cyanophenyl)thio)-6-(1-(1-hydroxy-2-methylpropan-2-yl)-1H-pyrazol-4-yl)pyrazolo[1,5-a]pyridine-3-carbonitrile]: 2 nM; for `CO[C@H]1CC[C@H](n2ncc(-c3cc(Sc4ccc(F)cc4C#N)c4c(C#N)cnn4c3)c2C)CC1` [Example 579, 4-((2-cyano-4-fluorophenyl)thio)-6-(1-((1r,4r)-4-methoxycyclohexyl)-5-methyl-1H-pyrazol-4-yl)pyrazolo[1,5-a]pyridine-3-carbonitrile]: 1.5 nM; for `CN(C)c1ccc(-c2cc(Sc3ccccc3C#N)c3c(C#N)cnn3c2)cn1` [Example 580, 4-((2-cyanophenyl)thio)-6-(6-(dimethylamino)pyridin-3-yl)pyrazolo[1,5-a]pyridine-3-carbonitrile]: 1 nM. For `N#Cc1ccccc1Sc1cc(-c2cnn([C@@H]3CCNC3)c2)cn2ncc(C#N)c12` [Example 581, (R)-4-((2-cyanophenyl)thio)-6-(1-(pyrrolidin-3-yl)-1H-pyrazol-4-yl)pyrazolo[1,5-a]pyridine-3-carbonitrile], the IC50 was found to be 0.5 nM. In the case of `CC(=O)N1CC[C@@H](n2cc(-c3cc(Sc4ccccc4C#N)c4c(C#N)cnn4c3)cn2)C1` [Example 582, (R)-6-(1-(1-acetylpyrrolidin-3-yl)-1H-pyrazol-4-yl)-4-((2-cyanophenyl)thio)pyrazolo [1,5-a]pyridine-3-carbonitrile], it took 1 nM to reach half-maximal inhibition (IC50).

In the case of `N#Cc1ccccc1Sc1cc(-c2cnn(CCCO)c2)cn2ncc(C#N)c12` [Example 583, 4-((2-cyanophenyl)thio)-6-(1-(3-hydroxypropyl)-1H-pyrazol-4-yl)pyrazolo[1,5-a]pyridine-3-carbonitrile], the IC50 amounted to 1 nM. The compound `N#Cc1ccccc1Sc1cc(-c2cnn(C(F)F)c2)cn2ncc(C#N)c12` [Example 584, 4-((2-cyanophenyl)thio)-6-(1-(difluoromethyl)-1H-pyrazol-4-yl)pyrazolo[1,5-a]pyridine-3-carbonitrile] came in with an IC50 of 6 nM. On the same count and under the same terms, the value for `N#Cc1ccccc1Sc1cc(-c2cnn(C3CCOC3)c2)cn2ncc(C#N)c12` (stereo not drawn) [Example 585, 4-((2-cyanophenyl)thio)-6-(1-(tetrahydrofuran-3-yl)-1H-pyrazol-4-yl)pyrazolo[1,5-a]pryidine-3-carbonitrile] was 1 nM; that for `N#Cc1cc(F)ccc1Sc1cc(-c2ccc(N3CCC(O)CC3)nc2)cn2ncc(C#N)c12` [Example 586, 4-((2-cyano-4-fluorophenyl)thio)-6-(6-(4-hydroxypiperidin-1-yl)pyridin-3-yl)pyrazolo[1,5-a]pyridine-3-carbonitrile] was 1 nM; that for `Cn1ccc(-c2cc(Sc3ccc(F)cc3C#N)c3c(C#N)cnn3c2)cc1=O` [Example 587, 4-((2-cyano-4-fluorophenyl)thio)-6-(1-methyl-2-oxo-1,2-dihydropyridin-4-yl)pyrazolo[1,5-a]pyridine-3-carbonitrile] was 43 nM. The same measure, in the same setting: the same measure for `N#Cc1ccccc1Sc1cc(-c2cnn(CC(F)(F)F)c2)cn2ncc(C#N)c12` [Example 588]: 2 nM; for `Cc1c(-c2cc(Sc3ccccc3C#N)c3c(C#N)cnn3c2)cnn1C1CCN(C(=O)C(C)(C)O)CC1` [Example 589, 4-((2-cyanophenyl)thio)-6-(1-(1-(2-hydroxy-2-methylpropanoyl)piperidin-4-yl)-5-methyl-1H-pyrazol-4-yl)pyrazolo[1,5-a]pyridine-3-carbonitrile]: 1 nM. The same measure, in the same setting: the same measure for `C[C@@H](O)C(=O)N1CCC[C@H](n2cc(-c3cc(Sc4ccccc4C#N)c4c(C#N)cnn4c3)cn2)C1` [Example 590, 4-((2-cyanophenyl)thio)-6-(1-((S)-1-((R)-2-hydroxypropanoyl)piperidin-3-yl)-1H-pyrazol-4-yl)pyrazolo[1,5-a]pyridine-3-carbonitrile]: 0.5 nM.

The compound `N#Cc1ccccc1Sc1cc(-c2cnn([C@@H]3CCNC(=O)C3)c2)cn2ncc(C#N)c12` [Example 591, (R)-4-((2-cyanophenyl)thio)-6-(1-(2-oxopiperidin-4-yl)-1H-pyrazol-4-yl)pyrazolo[1,5-a]pyridine-3-carbonitrile] registered an IC50 of 0.4 nM. Still for that read-out and setting: the same measure for `N#Cc1ccccc1Sc1cc(-c2cnn([C@H]3CCNC(=O)C3)c2)cn2ncc(C#N)c12` [Example 592, (S)-4-((2-cyanophenyl)thio)-6-(1-(2-oxopiperidin-4-yl)-1H-pyrazol-4-yl)pyrazolo[1,5-a]pyridine-3-carbonitrile]: 1 nM. Still for that read-out and setting: the same measure for `CC1(C)CC[C@H](n2cc(-c3cc(Sc4ccccc4C#N)c4c(C#N)cnn4c3)cn2)CN1` [Example 593, (S)-4-((2-cyanophenyl)thio)-6-(1-(6,6-dimethylpiperidin-3-yl)-1H-pyrazol-4-yl)pyrazolo[1,5-a]pyridine-3-carbonitrile]: 1 nM; for `CC1(C)CC[C@@H](n2cc(-c3cc(Sc4ccccc4C#N)c4c(C#N)cnn4c3)cn2)CN1` [Example 594, (R)-4-((2-cyanophenyl)thio)-6-(1-(6,6-dimethylpiperidin-3-yl)-1H-pyrazol-4-yl)pyrazolo[1,5-a]pyridine-3-carbonitrile]: 1 nM; for `N#Cc1cc(F)ccc1Sc1cc(-c2ccc(N3CCNCC3)nc2)cn2ncc(C#N)c12` [Example 595, 4-((2-cyano-4-fluorophenyl)thio)-6-(6-(piperazin-1-yl)pyridin-3-yl)pyrazolo[1,5-a]pyridine-3-carbonitrile]: 15 nM. On the same count and under the same terms, the value for `CN(CC(O)CO)c1ccc(-c2cc(Sc3ccc(F)cc3C#N)c3c(C#N)cnn3c2)cn1` (stereo not drawn) [Example 596, 4-((2-cyano-4-fluorophenyl)thio)-6-(6-((2,3-dihydroxypropyl)(methyl)amino)pyridin-3-yl)pyrazolo[1,5-a]pyridine-3-carbonitrile] was 1 nM. As for `Cc1cccc(C#N)c1Sc1cc(-c2cnn(C)c2)cn2ncc(C#N)c12` [Example 597, 4-((2-cyano-6-methylphenyl)thio)-6-(1-methyl-1H-pyrazol-4-yl)pyrazolo[1,5-a]pryidine-3-carbonitrile], half-maximal inhibition (IC50) was put at 30 nM. Same read-out and setting: the same measure for `CN(C)CCn1cc(-c2cc(Sc3ccccc3C#N)c3c(C#N)cnn3c2)cn1` [Example 598, 4-((2-cyanophenyl)thio)-6-(1-(2-(dimethylamino)ethyl)-1H-pyrazol-4-yl)pyrazolo[1,5-a]pryidine-3-carbontrile]: 1 nM; for `N#Cc1ccccc1Sc1cc(-c2cnn([C@H]3CCCC[C@H]3O)c2)cn2ncc(C#N)c12` [Example 599, 4-((2-cyanophenyl)thio)-6-(1-((1S,2R)-2-hydroxycyclohexyl)-1H-pyrazol-4-yl)pyrazolo[1,5-a]pyridine-3-carbonitrile]: 2 nM; for `CC(=O)N1CCN(c2nnc(-c3cc(Sc4ccccc4C#N)c4c(C#N)cnn4c3)s2)CC1` [Example 600, 6-(5-(4-acetylpiperazin-1-y)-1,3,4-thiadiazol-2-yl)-4-((2-cyanophenyl)thio)pyrazolo [1,5-a]pyridine-3-carbonitrile]: 6 nM. In turn, `CC(=O)N1CCN(c2ncc(-c3cc(Sc4ccccc4C#N)c4c(C#N)cnn4c3)o2)CC1` [Example 601, 6-(2-(4-acetylpiperazin-1-yl)oxazol-5-yl)-4-((2-cyanophenyl)thio)pyrazolo [1,5-a]pyridine-3-carbonitrile] gave an IC50 of 53 nM. The compound `N#Cc1ccccc1Sc1cc(-c2cnn([C@@H]3CCN(CCO)C3)c2)cn2ncc(C#N)c12` [Example 603, (R)-4-((2-cyanophenyl)thio)-6-(1-(1-(2-hydroxyethyl)pyrrolidin-3-yl)-1H-pyrazol-4-yl)pyrazolo[1,5-a]pyridine-3-carbonitrile] returned an IC50 of 0.6 nM.

Compound `CN1CC[C@@H](n2cc(-c3cc(Sc4ccccc4C#N)c4c(C#N)cnn4c3)cn2)C1` [Example 604, (R)-4-((2-cyanophenyl)thio)-6-(1-(1-methylpyrrolidin-3-yl)-1H-pyrazol-4-yl)pyrazolo[1,5-a]pyridine-3-carbonitrile] gave an IC50 of 0.5 nM.

Staying with this assay, now noted: read-out: Enz FGFR2; FGFR2 wild type enzyme assay.
Take `CC(=O)O[C@H]1CC[C@H](n2ncc(-c3cc(Sc4ccc(F)cc4C#N)c4c(C#N)cnn4c3)c2C)CC1` [Example 602, (1r,4r)-4-(4-(3-cyano-4-((2-cyano-4-fluorophenyl)thhio)pyrazolo [1,5-a]pyridin-6-yl)-5-methyl-1H-pyrazol-1-yl)cyclohexyl acetate]: the pIC50 is 8.70.
